Experimental data: ChEMBL document CHEMBL1155842, “Imidazole piperazines: SAR and development of a potent class of cyclin-dependent kinase inhibitors with a novel binding mode” (Bioorg Med Chem Lett, 2008)
≈ marks a conversion by molar mass, not a printed value.

How the values were obtained:
MCF7 = assay: cells; details: Homo sapiens, MCF7, 48 h
Description: Antiproliferative activity against human MCF7 cells after 48 hrs

[1] = target: Cyclin-dependent kinase 2 (Homo sapiens, UniProt P24941); assay: Inhibition of CDK2/Cyclin E
[2] = Protein binding in rat plasma assessed as unbound fraction; format: ADME, cell-free
[3] = AUC in rat at 2 mg/kg, po; format: ADME, organism-based; parameters: dose 2 mg/kg, route oral; details: plasma
[4] = Oral bioavailability in dog; format: ADME, organism-based, Canis lupus familiaris; details: in vivo
[5] = Plasma clearance in dog; format: ADME, organism-based, Canis lupus familiaris
[6] = Oral bioavailability in rat; format: ADME, organism-based; details: in vivo
[7] = Volume of distribution at steady state in rat; format: ADME, organism-based; details: in vivo, read-out: Vdss
[8] = Volume of distribution at steady state in dog; format: ADME, organism-based, Canis lupus familiaris; details: in vivo, read-out: Vdss
SW-620 [9] = assay: Antitumor activity against human SW620 cells xenografted nude mouse assessed as tumor growth inhibition at 7.5 mg/kg, po once daily for 28 days; details: SW-620, po, 672 h, read-out: INH
[10] = Plasma clearance in rat; format: ADME, organism-based
[11] = target: Voltage-gated inwardly rectifying potassium channel KCNH2 (Homo sapiens, UniProt Q12809)
Voltage-gated inwardly rectifying potassium channel KCNH2, sequence (Q12809 whole entry): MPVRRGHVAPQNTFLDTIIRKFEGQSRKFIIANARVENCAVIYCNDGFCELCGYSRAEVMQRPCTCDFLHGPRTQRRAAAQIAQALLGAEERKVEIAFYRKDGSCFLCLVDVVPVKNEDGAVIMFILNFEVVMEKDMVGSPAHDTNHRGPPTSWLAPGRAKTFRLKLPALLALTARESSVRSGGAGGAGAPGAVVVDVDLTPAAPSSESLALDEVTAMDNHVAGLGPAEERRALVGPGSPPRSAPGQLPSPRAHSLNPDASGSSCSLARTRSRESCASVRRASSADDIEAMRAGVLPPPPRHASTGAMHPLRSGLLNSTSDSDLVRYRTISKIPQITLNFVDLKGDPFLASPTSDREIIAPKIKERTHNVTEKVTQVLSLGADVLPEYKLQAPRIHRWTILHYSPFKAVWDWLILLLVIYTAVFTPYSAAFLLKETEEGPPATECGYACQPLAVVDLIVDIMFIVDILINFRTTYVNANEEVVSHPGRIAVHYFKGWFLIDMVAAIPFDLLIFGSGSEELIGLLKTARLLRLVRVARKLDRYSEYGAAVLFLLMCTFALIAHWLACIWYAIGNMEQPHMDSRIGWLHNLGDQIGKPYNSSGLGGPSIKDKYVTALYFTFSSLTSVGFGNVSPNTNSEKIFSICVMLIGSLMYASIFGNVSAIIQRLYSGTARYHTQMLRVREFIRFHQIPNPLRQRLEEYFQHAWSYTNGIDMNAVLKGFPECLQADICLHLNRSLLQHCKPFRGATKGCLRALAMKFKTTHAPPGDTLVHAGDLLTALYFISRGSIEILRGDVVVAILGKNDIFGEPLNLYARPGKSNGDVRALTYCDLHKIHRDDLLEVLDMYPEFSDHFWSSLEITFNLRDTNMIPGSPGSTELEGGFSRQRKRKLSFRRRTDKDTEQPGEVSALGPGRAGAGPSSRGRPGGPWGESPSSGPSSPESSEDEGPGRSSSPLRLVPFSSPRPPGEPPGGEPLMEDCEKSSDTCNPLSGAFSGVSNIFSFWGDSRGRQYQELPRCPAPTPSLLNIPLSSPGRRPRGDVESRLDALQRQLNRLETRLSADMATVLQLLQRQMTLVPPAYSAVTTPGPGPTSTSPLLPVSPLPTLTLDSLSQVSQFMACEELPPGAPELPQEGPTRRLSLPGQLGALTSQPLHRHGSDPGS

[12] = Aqueous solubility at pH 7.4; details: buffer
[13] = Lipophilicity Log D at pH 7.4; details: buffer
SW-620 [14] = assay: animal or person; details: Mus musculus, SW-620, po, 672 h, read-out: INH
Description: Antitumor activity against human SW620 cells xenografted nude mouse assessed as tumor growth inhibition at 12.5 mg/kg, po once daily for 28 days

Row | SMILES | IC50 (MCF7) [nM] | IC50 [1] [nM] | AUC [3] [µM·h] | solubility [12] [µM] | logD [13] | other results
1 | COCCNS(=O)(=O)c1ccc(Nc2nccc(-c3cnc(C)n3C(C)C)n2)cc1 | 45 | – | – | – | – | –
2 | CC(=O)N1CCN(c2ccc(Nc3nccc(-c4cnc(C)n4C(C)C)n3)cc2)CC1 | 145 | < 3 | – | – | – | –
3 | Cc1ncc(-c2ccnc(Nc3ccc(N4CCN(C(=O)CO)CC4)cc3)n2)n1C(C)C | – | – | 0.4 | – | – | fraction unbound [2]: 0.22; bioavailability [4]: 79%; clearance [5]: 19 mL/min/kg; bioavailability [6]: 59%; Vd [7]: 2.5 L/kg; Vd [8]: 3.4 L/kg; inhibition in vivo at 7.5 mg/kg (SW-620 [9]): 80%; clearance [10]: 15 mL/min/kg
4 | CC(=O)N[C@@H]1CCN(c2ccc(Nc3ncc(F)c(-c4cnc(C)n4C(C)C)n3)cc2)C1 | 140 | > 0.3 | – | – | – | –
5 | COc1ccc(Nc2nccc(-c3cnc(C)n3C(C)C)n2)cc1 | 72 | 8 | – | – | – | –
6 | Cc1ncc(-c2ccnc(Nc3ccc(N4CCN(C(=O)CN(C)C)CC4)cc3)n2)n1C(C)C | < 27 | 16 | – | > 3400 | 3.3 | fraction unbound [2]: 0.4; IC50 [11]: > 32000 nM
7 | Cc1ncc(-c2ccnc(Nc3ccc(C#N)cc3)n2)n1C(C)C | 70 | < 3 | – | – | – | –
8 | Cc1ncc(-c2ccnc(Nc3ccc(N4CCN(S(=O)(=O)CCN(C)C)CC4)cc3)n2)n1C(C)C | < 39 | 3 | – | – | 2.5 | IC50 [11]: 18000 nM
9 | Cc1ncc(-c2nc(Nc3ccc(N4CCOCC4)cc3)ncc2F)n1C(C)C | 110 | 8 | 0.19 | 120 (≈ 47.6 µg/mL) | 3 | IC50 [11]: 11000 nM; bioavailability [4]: 3%; clearance [5]: 140 mL/min/kg; bioavailability [6]: 34%; Vd [7]: 1.3 L/kg; Vd [8]: 2.9 L/kg; clearance [10]: 26 mL/min/kg
10 | Cc1ncc(-c2nc(Nc3ccc(N4CCC[C@H]4C(=O)N(C)C)cc3)ncc2F)n1C(C)C | – | 46 | – | – | – | –
11 | Cc1ncc(-c2ccnc(Nc3ccc(N4CCOCC4)cc3)n2)n1C(C)C | 290 | 9 | 0.16 | 56 (≈ 21.2 µg/mL) | 2.9 | –
12 | Cc1ncc(-c2ccnc(Nc3ccc(N4CCN(C(=O)[C@H](C)O)CC4)cc3)n2)n1C(C)C | 220 | 17 | 0.16 | – | – | IC50 [11]: > 24000 nM
13 | Cc1ncc(-c2ccnc(Nc3ccc(N4CCN(S(C)(=O)=O)CC4)cc3)n2)n1C(C)C | 72 | < 3 | 0.08 | 9 (≈ 4.1 µg/mL) | 2.6 | fraction unbound [2]: 0.08; IC50 [11]: 5500 nM
14 | COCCS(=O)(=O)N1CCN(c2ccc(Nc3nccc(-c4cnc(C)n4C(C)C)n3)cc2)CC1 | 93 | < 3 | – | – | – | –
15 | CCN(CC)CC(=O)N1CCN(c2ccc(Nc3nccc(-c4cnc(C)n4C(C)C)n3)cc2)CC1 | < 22 | – | – | > 3700 | – | –
16 | Cc1ncc(-c2ccnc(Nc3ccc(Cl)cc3)n2)n1C(C)C | 72 | < 3 | – | – | – | –
17 | CC(=O)NC1CN(c2ccc(Nc3ncc(F)c(-c4cnc(C)n4C(C)C)n3)cc2)C1 | – | 0.5 | – | 120 (≈ 50.8 µg/mL) | 2.8 | fraction unbound [2]: 0.05
18 | Cc1ncc(-c2ccnc(Nc3ccc(N(C)C)cc3)n2)n1C(C)C | 68 | 24 | – | – | – | –
19 | Cc1ncc(-c2ccnc(Nc3ccc(F)cc3)n2)n1C(C)C | 100 | 3 | – | – | – | –
20 | Cc1ncc(-c2nc(Nc3ccc(N4CCN(C(=O)CO)CC4)cc3)ncc2F)n1C(C)C | 75 | 6 | 0.17 | 160 (≈ 72.6 µg/mL) | 2.2 | inhibition in vivo at 12.5 mg/kg (SW-620 [14]): 89%; bioavailability [4]: 31%; clearance [5]: 24 mL/min/kg; bioavailability [6]: 67%; Vd [7]: 1 L/kg; Vd [8]: 3.5 L/kg; clearance [10]: 16 mL/min/kg
